Test [1] concerns Neisseria meningitidis (N. meningitidis) 13090. In words: Antibacterial activity, MIC (Table 8). Type of test: cell-based. The method in brief: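 Read-out: absence of macroscopically visible growth. The lowest inhibiting concentration from the microbroth dilution series is reported as MIC in μg/mL.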
For test [2], the system named is E. coli LZ3111. In words: Antibacterial activity, MIC, quinolone resistant strain (Table 2). The note with it: Escherichia coli, LZ3111, read-out: MIC LZ3111. Type of test: cell-based. Put shortly: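 Growth inhibition assessed by serial drug dilution in broth; endpoint was absence of macroscopically visible growth, reported as MIC, μg/mL.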
For test [3], the system named is Pseudomonas aeruginosa (P. aeruginosa) 27853. In words: Antibacterial activity, MIC (Table 5). Type of test: cell-based. Particulars: P. aeruginosa 27853, read-out: MIC, 27853. Put shortly:
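Using a microbroth dilution format, the minimum inhibitory concentration was recorded as the lowest tested concentration that stopped visible bacterial growth, expressed in μg/mL.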

For test [4], the system named is K. pneumoniae MXX1232. In words: Antibacterial activity, MIC, resistant strain (Table 4). The note with it: Klebsiella pneumoniae, MXX1232; resistant K. pneumoniae MMX1232, multi-drug resistant clinical isolate; read-out: MIC, MMX1232. Type of test: cell-based. Put shortly: (§1)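 Compounds are serially diluted in microbroth, bacteria are grown under the test conditions, and growth is then inspected macroscopically. The lowest concentration without visible growth is reported as the MIC (μg/mL).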

Test [5] relates to A. baumannii MXX2240. The description is as above. Type of test: cell-based. Particulars: Acinetobacter baumannii, MXX2240; resistant A. baumannii MMX2240, multi-drug resistant clinical isolate; read-out: MIC, MMX2240. The method in brief:
as §1

Test [6] relates to Escherichia coli (E. coli) BAS849. The test is described as follows: Antibacterial activity, microbroth dilution MIC (Table 1). Type of test: cell-based. Particulars: microbroth dilution, super sensitive Gram-negative E. coli BAS849, read-out: MIC, BAS849. The method in brief: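 Values are MICs (μg/mL): the smallest drug amount at which macroscopically visible bacterial growth is absent under assay conditions, from a microdilution method in broth.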

In test [7] the test system is Staphylococcus aureus (S. aureus) 29213. The test is described as above. The note with it: microbroth dilution, Gram-positive S. aureus 29213, read-out: MIC, 29213. Type of test: cell-based. The method in brief:
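Lowest concentration stopping macroscopically visible growth under test conditions, by broth microdilution, defines the MIC (μg/mL).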

Test [8] relates to E. coli 25922. The description is as above. Type of test: cell-based, Escherichia coli. The note with it: Escherichia coli; microbroth dilution; control Gram-negative E. coli 25922 strain; read-out: MIC, 25922. The method in brief:
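Growth inhibition by microbroth dilution. MIC = lowest μg/mL with no visible growth. Strain 25922 is the control Gram-negative; BAS849 is hypersensitive.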

Test [9] relates to Haemophilus influenzae (H. influenzae) 49247. The test is described as follows: Antibacterial activity, MIC (Table 6). Type of test: cell-based. The source says:
(§2) The antibacterial activity from a microbroth dilution method may be presented as the minimum inhibitory concentration (MIC in μg/mL). The MIC value is the lowest concentration of drug which prevents macroscopically visible growth under test conditions.
(§3) Antibacterial activity of test compounds against the Gram-negative bacteria Haemophilus influenzae (H. influenzae) 49247 is shown in Table 6, Moraxella catarrhalis (M. catarrhalis) 25238 is shown in Table 7 and Neisseria meningitidis (N. meningitidis) 13090 is shown in Table 8.

Test [10] deals with Klebsiella pneumoniae (K. pneumoniae) 35657. The test is described as follows: Antibacterial activity, MIC (Table 4). Type of test: cell-based. Particulars: K. pneumoniae 35657, read-out: MIC, 35657. The method in brief: as §1
For test [11], the system named is Acinetobacter baumannii (A. baumannii) BAA747. The test is described as follows: Antibacterial activity, MIC (Table 4). Type of test: cell-based. The note with it: A. baumannii BAA747, read-out: MIC, BAA747. The method in brief:
as §1

Test [12] relates to E. coli ELZ4000. In words: Antibacterial activity, MIC, multi-drug resistant clinical isolate (Table 3). Type of test: cell-based. Particulars: Escherichia coli, ELZ4000, read-out: MIC ELZ4000. Put shortly: (§4)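 Values derive from a microbroth dilution method, taking as MIC (μg/mL) the lowest tested concentration without macroscopically visible growth.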
For test [13], the system named is E. coli ELZ4251. The test is described as above. Type of test: cell-based. The note with it: Escherichia coli. The method in brief: as §4
Test [14] has as its system Moraxella catarrhalis (M. catarrhalis) 25238. The test is described as follows: Antibacterial activity, MIC (Table 7). Type of test: cell-based.
Text: as §2, §3

MIC data for five compounds are collected here from US9409905B2, “Antibacterial compounds and methods for use” (PTC THERAPEUTICS, INC., priority 2011, dated 2016).

Converted amounts (≈) assume the structure as drawn. Bounds are passed on as bounds.

Consider `CCc1c(-c2cnc3c(ccn3C)c2)[nH]c(=O)c(C(=O)O)c1O` [Cpd 32, 5-ethyl-4-hydroxy-6-(1-methyl-1H-pyrrolo[2,3-b]pyridin-5-yl)-2-oxo-1,2-dihydropyridine-3-carboxylic acid], for which the MIC was under 1 µg/mL in test [1]; 1 to 3.5 µg/mL (≈ 3.19 to 11.2 µM) in test [2]; 12.5 to 150 µg/mL (≈ 39.9 to 479 µM) in test [3]; 12.5 to 150 µg/mL (≈ 39.9 to 479 µM) in [4]; under 1 µg/mL in [5]; under 1 µg/mL in [6]. The MIC lay within 3.5 to 12.5 µg/mL (≈ 11.2 to 39.9 µM) in [7]; 12.5 to 150 µg/mL (≈ 39.9 to 479 µM) in test [8]; 1 to 3.5 µg/mL (≈ 3.19 to 11.2 µM) in [9]; 12.5 to 150 µg/mL (≈ 39.9 to 479 µM) in test [10]; 12.5 to 150 µg/mL (≈ 39.9 to 479 µM) in test [11]; 1 to 3.5 µg/mL (≈ 3.19 to 11.2 µM) in test [12]. Besides, the MIC was under 1 µg/mL in test [13] and 1 to 3.5 µg/mL (≈ 3.19 to 11.2 µM) in [14].

`Cn1ccc2cc(-c3[nH]c(=O)c(C(=O)O)c(O)c3C3CC3)ccc21` [Cpd 36, 5-cyclopropyl-4-hydroxy-6-(1-methyl-1H-indol-5-yl)-2-oxo-1,2-dihydropyridine-3-carboxylic acid]: the MIC in test [1] is under 1 µg/mL; in test [2] it was 3.5 to 12.5 µg/mL (≈ 10.8 to 38.5 µM); in [3], 12.5 to 150 µg/mL (≈ 38.5 to 462 µM); in test [4] it was 12.5 to 150 µg/mL (≈ 38.5 to 462 µM); in test [5], 1 to 3.5 µg/mL (≈ 3.08 to 10.8 µM); in [6], 1 to 3.5 µg/mL (≈ 3.08 to 10.8 µM). In addition, the MIC in [7] was 3.5 to 12.5 µg/mL (≈ 10.8 to 38.5 µM); in [8], 12.5 to 150 µg/mL (≈ 38.5 to 462 µM); in test [9], 3.5 to 12.5 µg/mL (≈ 10.8 to 38.5 µM); in test [10] it was 12.5 to 150 µg/mL (≈ 38.5 to 462 µM); in test [11] it was 12.5 to 150 µg/mL (≈ 38.5 to 462 µM); in test [12], 3.5 to 12.5 µg/mL (≈ 10.8 to 38.5 µM). The MIC in test [13] and in [14] was 1 to 3.5 µg/mL (≈ 3.08 to 10.8 µM) in each case.

`CCc1c(-c2ccc3c(cnn3C)c2)[nH]c(=O)c(C(=O)O)c1O` [Cpd 42, 5-ethyl-4-hydroxy-6-(1-methyl-1H-indazol-5-yl)-2-oxo-1,2-dihydropyridine-3-carboxylic acid]: the MIC in test [1] is under 1 µg/mL; in test [2], 1 to 3.5 µg/mL (≈ 3.19 to 11.2 µM); in [3] it was 12.5 to 150 µg/mL (≈ 39.9 to 479 µM); in test [4] it was 12.5 to 150 µg/mL (≈ 39.9 to 479 µM); in test [5] it was 3.5 to 12.5 µg/mL (≈ 11.2 to 39.9 µM); in test [6], under 1 µg/mL. In addition, the MIC is 12.5 to 150 µg/mL (≈ 39.9 to 479 µM) in [7]; 3.5 to 12.5 µg/mL (≈ 11.2 to 39.9 µM) in test [8]; under 1 µg/mL in test [9]; 3.5 to 12.5 µg/mL (≈ 11.2 to 39.9 µM) in [10]; 1 to 3.5 µg/mL (≈ 3.19 to 11.2 µM) in test [11]; 3.5 to 12.5 µg/mL (≈ 11.2 to 39.9 µM) in test [12]. Moreover, the MIC was 3.5 to 12.5 µg/mL (≈ 11.2 to 39.9 µM) in test [13] and under 1 µg/mL in test [14].

Turning to `CCNCc1cc2cc(-c3[nH]c(=O)c(C(=O)O)c(O)c3CC)ccc2n1C` [Cpd 165, 5-ethyl-6-(2-((ethylamino)methyl)-1-methyl-1H-indol-5-yl)-4-hydroxy-2-oxo-1,2-dihydropyridine-3-carboxylic acid], the MIC in [1] is under 1 µg/mL; in [2], 1 to 3.5 µg/mL (≈ 2.71 to 9.47 µM); in test [3] it was 3.5 to 12.5 µg/mL (≈ 9.47 to 33.8 µM); in [4] it was 12.5 to 150 µg/mL (≈ 33.8 to 406 µM); in [5] it was 3.5 to 12.5 µg/mL (≈ 9.47 to 33.8 µM); in test [6], under 1 µg/mL. The MIC in test [7] was 3.5 to 12.5 µg/mL (≈ 9.47 to 33.8 µM); in test [8] it was under 1 µg/mL; in [9], under 1 µg/mL; in [10], under 1 µg/mL; in test [11] it was under 1 µg/mL; in [12], 3.5 to 12.5 µg/mL (≈ 9.47 to 33.8 µM). The values for the MIC in test [13] and in test [14] were 1 to 3.5 µg/mL (≈ 2.71 to 9.47 µM) and under 1 µg/mL, respectively.

Take `CCc1c(-c2ccc3c(c2)cc(CN(C)C)n3C)[nH]c(=O)c(C(=O)O)c1O` [Cpd 166, 6-(2-((dimethylamino)methyl)-1-methyl-1H-indol-5-yl)-5-ethyl-4-hydroxy-2-oxo-1,2-dihydropyridine-3-carboxylic acid]: the MIC is under 1 µg/mL in test [1]; 3.5 to 12.5 µg/mL (≈ 9.47 to 33.8 µM) in [2]; 3.5 to 12.5 µg/mL (≈ 9.47 to 33.8 µM) in [3]; 12.5 to 150 µg/mL (≈ 33.8 to 406 µM) in [4]; 1 to 3.5 µg/mL (≈ 2.71 to 9.47 µM) in test [5]; under 1 µg/mL in [6]. Further, the MIC is 3.5 to 12.5 µg/mL (≈ 9.47 to 33.8 µM) in test [7]; under 1 µg/mL in test [8]; under 1 µg/mL in test [9]; under 1 µg/mL in [10]; under 1 µg/mL in test [11]; 12.5 to 150 µg/mL (≈ 33.8 to 406 µM) in test [12]. Also, the MIC was 3.5 to 12.5 µg/mL (≈ 9.47 to 33.8 µM) in test [13] and under 1 µg/mL in test [14].
